# Read-outs that look alike come from different tables or passages of the source.
# What was measured:
# [1] = Pharmacokinetics in male CD-1 mice; type: in vivo; settings: for AUCex: percent of AUC0-inf that is extrapolated; for AUC(0-t): male, CD-1, mouse; for AUC(0-t) / bioavailability / Cmax / Tmax / half-life / AUC(0-inf) / clearance / Vd / CL/F / Vd/F: plasma; for bioavailability / Cmax / Tmax / half-life / AUC(0-inf) / clearance / Vd / CL/F / Vd/F: mouse; for bioavailability: read-out: F (oral bioavailability); for AUC(0-inf) / clearance / Vd / CL/F / Vd/F: predicted; for Vd: read-out: Vz; for Vd/F: read-out: Vz/F
# Experimental: Six groups of male CD-1 mice of approximately 25-35 g (about 8 weeks of age) were dosed with Comparative compound 324 and Compound A intravenously (IV) (in 10% DMSO:90% Hydroxypropyl-β-cyclodextrin (20% aq. w/v)) or orally (PO) (in 0.5% w/v methylcelluose (aq.) according to the regimen shown in Table 6.
# Intravenous doses was administered into a tail vein at a constant dose volume of 5 mL/kg to achieve a dose level of 3 mg/kg. Oral doses were administered as a single bolus dose via syringe with attached polypropylene gavage tube at a constant dose volume of 10 mL/kg to achieve dose levels of 3 mg/kg (groups 2 and 4) and 30 mg/kg (group 3 and 6).
# Following dosing, blood samples were collected into individual K3EDTA tubes by cardiac puncture under terminal anaesthesia (isoflurane) from 3 animals per timepoint. Following collection animal were sacrificed by cervical dislocation. Samples were taken at 5, 15 and 30 minutes and then 1, 2, 4, 8 and 24 hours post-IV dose and 15 and 30 minutes and then 1, 2, 4, 8 and 24 hours post-OP dose.
# Upon collection, blood samples were centrifuged at 10,000×g, 2 minutes at 4° C. and the resultant plasma was drawn off and stored at −20° C. for analysis by LC-MS/MS of the concentration of the compounds. The remaining blood call pellet was discarded.
# Pharmacokinetic parameters were derived by non-compartmental analysis (linear/logarithmic trapezoidal) using WinNonlin (Version 4.1 or higher) software.
# [2] = biological target: ABL1 (F317I) non-phosphorylated (Homo sapiens, UniProt P00519, F317I); assay: KINOMEscan binding assay; settings: read-out: % Ctrl @ 10000 nM
# ABL1 phosphorylated = ABL1 phosphorylated (Homo sapiens, UniProt P00519); assay: KINOMEscan binding assay; settings: read-out: % Ctrl @ 10000 nM
# CAMK1G = CAMK1G (Homo sapiens, UniProt Q96NX5); assay: KINOMEscan binding assay; settings: read-out: % Ctrl @ 10000 nM
# Chain of CAMK1G (Q96NX5 whole entry): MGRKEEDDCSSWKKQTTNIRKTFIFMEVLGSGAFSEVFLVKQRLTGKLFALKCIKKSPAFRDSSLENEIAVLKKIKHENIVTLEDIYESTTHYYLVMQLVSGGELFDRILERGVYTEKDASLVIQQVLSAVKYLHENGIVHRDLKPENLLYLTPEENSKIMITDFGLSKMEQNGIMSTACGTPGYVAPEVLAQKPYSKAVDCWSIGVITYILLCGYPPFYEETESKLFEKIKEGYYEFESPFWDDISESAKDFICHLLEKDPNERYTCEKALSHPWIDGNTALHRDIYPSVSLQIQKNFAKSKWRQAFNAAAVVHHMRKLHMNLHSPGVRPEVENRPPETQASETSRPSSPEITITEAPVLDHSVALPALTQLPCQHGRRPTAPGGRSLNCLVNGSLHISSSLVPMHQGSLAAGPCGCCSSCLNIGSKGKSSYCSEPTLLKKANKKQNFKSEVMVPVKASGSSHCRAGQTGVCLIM
# CSNK1G1 = CSNK1G1 (Homo sapiens, UniProt Q9HCP0); assay: KINOMEscan binding assay; settings: read-out: % Ctrl @ 10000 nM
# CSNK1G3 = CSNK1G3 (Homo sapiens, UniProt Q9Y6M4); assay: KINOMEscan binding assay; settings: read-out: % Ctrl @ 10000 nM
# DAPK2 = DAPK2 (Homo sapiens, UniProt Q9UIK4); assay: KINOMEscan binding assay; settings: read-out: % Ctrl @ 10000 nM
# FLT3 = FLT3 (Homo sapiens, UniProt P36888); assay: KINOMEscan binding assay; settings: read-out: % Ctrl @ 10000 nM
# HIPK3 = HIPK3 (Homo sapiens, UniProt Q9H422); assay: KINOMEscan binding assay; settings: read-out: % Ctrl @ 10000 nM
# Chain of HIPK3 (Q9H422 whole entry): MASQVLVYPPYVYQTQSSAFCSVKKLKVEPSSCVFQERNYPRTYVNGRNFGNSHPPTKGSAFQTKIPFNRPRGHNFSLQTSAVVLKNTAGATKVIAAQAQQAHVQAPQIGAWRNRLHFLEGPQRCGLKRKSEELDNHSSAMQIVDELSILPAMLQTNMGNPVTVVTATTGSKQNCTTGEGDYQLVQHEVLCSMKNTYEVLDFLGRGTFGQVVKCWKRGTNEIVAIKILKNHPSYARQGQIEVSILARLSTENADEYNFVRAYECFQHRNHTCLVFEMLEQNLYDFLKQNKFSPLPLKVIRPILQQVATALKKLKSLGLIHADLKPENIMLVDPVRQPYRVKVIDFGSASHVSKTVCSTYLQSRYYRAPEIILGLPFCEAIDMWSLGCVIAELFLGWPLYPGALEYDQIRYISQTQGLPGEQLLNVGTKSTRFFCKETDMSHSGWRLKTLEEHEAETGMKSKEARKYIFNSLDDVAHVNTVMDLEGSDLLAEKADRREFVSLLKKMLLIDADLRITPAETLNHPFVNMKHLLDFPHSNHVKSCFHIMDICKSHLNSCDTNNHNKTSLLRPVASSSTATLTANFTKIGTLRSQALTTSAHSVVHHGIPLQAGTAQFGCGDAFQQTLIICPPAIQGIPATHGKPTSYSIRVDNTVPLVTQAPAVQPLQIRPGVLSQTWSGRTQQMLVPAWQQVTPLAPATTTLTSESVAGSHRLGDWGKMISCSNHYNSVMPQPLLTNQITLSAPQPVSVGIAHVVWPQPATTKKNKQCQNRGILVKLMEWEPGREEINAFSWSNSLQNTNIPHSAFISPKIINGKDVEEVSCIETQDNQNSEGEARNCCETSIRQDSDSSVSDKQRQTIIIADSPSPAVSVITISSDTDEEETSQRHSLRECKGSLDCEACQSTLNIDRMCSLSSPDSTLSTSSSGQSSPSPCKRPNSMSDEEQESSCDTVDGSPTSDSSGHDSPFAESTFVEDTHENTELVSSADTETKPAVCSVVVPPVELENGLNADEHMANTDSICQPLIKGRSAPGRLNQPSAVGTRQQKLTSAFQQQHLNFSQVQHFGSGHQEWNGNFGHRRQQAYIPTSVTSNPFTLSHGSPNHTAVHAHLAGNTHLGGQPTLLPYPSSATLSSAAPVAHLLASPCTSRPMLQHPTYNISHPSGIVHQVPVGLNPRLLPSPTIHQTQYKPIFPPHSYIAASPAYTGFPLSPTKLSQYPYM
# HIPK4 = HIPK4 (Homo sapiens, UniProt Q8NE63); assay: KINOMEscan binding assay; settings: read-out: % Ctrl @ 10000 nM
# KIT (V559D, T670I) = KIT (V559D, T670I) (Homo sapiens, UniProt P10721, T670I/V559D); assay: KINOMEscan binding assay; settings: read-out: % Ctrl @ 10000 nM
# MAK = MAK (Homo sapiens, UniProt P20794); assay: KINOMEscan binding assay; settings: read-out: % Ctrl @ 10000 nM
# Chain of MAK (P20794 whole entry): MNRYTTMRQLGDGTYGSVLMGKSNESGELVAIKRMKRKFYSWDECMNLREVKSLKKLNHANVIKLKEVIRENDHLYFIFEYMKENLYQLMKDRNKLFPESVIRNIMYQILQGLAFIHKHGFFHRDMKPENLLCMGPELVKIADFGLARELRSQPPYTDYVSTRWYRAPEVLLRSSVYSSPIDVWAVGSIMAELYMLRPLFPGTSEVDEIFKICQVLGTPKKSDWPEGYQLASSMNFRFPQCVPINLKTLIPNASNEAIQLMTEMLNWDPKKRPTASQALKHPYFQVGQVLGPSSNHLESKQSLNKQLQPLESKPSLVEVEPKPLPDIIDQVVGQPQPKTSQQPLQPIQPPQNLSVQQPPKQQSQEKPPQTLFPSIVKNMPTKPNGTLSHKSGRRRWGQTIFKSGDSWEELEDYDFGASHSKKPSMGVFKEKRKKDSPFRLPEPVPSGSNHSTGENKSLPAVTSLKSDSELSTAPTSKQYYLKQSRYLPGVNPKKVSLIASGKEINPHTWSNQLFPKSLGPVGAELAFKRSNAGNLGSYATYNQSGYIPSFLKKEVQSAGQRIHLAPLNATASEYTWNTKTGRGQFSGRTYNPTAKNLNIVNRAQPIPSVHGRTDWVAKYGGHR
# MAP4K3 = biological target: T1, MAP4K3 (Homo sapiens, UniProt Q8IVH8); assay: KINOMEscan binding assay; settings: read-out: % Ctrl @ 10000 nM
# T1 construct: T7 phage fusion (most assays) or DNA label after HEK293 expression; purchased DiscoveRx (KINOMEscan, LeadHunter Discovery services); host or cells: T7 phage in E. coli (BL21-derived) or HEK293
# MEK4 = MEK4 (Homo sapiens, UniProt P45985); assay: KINOMEscan binding assay; settings: read-out: % Ctrl @ 10000 nM
# Chain of MEK4 (P45985 whole entry): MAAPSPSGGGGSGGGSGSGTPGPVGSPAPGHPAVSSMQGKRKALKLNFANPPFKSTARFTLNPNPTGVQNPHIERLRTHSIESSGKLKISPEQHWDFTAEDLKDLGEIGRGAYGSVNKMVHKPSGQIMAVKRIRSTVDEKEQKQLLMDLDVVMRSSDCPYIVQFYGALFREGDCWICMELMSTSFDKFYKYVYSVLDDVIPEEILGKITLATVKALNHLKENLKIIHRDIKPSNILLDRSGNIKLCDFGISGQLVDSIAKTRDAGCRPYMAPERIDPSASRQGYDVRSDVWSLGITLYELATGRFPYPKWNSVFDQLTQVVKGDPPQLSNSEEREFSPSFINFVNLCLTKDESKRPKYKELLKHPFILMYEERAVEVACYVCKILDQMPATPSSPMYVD
# MYLK = MYLK (Homo sapiens, UniProt Q15746); assay: KINOMEscan binding assay; settings: read-out: % Ctrl @ 10000 nM
# NEK6 = NEK6 (Homo sapiens, UniProt Q9HC98); assay: KINOMEscan binding assay; settings: read-out: % Ctrl @ 10000 nM
# Chain of NEK6 (Q9HC98 whole entry): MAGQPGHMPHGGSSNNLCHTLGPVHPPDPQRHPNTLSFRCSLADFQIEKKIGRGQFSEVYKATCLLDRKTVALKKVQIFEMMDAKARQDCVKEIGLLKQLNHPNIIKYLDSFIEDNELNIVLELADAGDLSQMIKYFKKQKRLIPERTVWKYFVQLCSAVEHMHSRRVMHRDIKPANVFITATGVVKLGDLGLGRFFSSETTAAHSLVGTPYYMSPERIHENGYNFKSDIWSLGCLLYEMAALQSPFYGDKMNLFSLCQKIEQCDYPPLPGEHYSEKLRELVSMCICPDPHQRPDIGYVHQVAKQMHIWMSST
# NIM1 = NIM1 (Homo sapiens, UniProt Q8IY84); assay: KINOMEscan binding assay; settings: read-out: % Ctrl @ 10000 nM
# Chain of NIM1 (Q8IY84 whole entry): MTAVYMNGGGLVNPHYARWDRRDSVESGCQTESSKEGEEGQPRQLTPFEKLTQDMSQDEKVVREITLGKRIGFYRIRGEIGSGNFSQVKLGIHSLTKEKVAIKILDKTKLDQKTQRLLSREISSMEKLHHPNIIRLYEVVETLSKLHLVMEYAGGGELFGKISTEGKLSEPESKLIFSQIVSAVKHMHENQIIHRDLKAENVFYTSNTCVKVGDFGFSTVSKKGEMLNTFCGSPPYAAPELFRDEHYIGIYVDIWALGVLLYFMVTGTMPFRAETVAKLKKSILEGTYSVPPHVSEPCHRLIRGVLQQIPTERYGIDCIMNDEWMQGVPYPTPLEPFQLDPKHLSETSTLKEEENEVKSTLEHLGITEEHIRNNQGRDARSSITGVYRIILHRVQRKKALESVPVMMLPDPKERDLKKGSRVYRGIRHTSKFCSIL
# p38-alpha = p38-alpha (Homo sapiens, UniProt Q16539); assay: KINOMEscan binding assay; settings: read-out: % Ctrl @ 10000 nM
# PAK3 = PAK3 (Homo sapiens, UniProt O75914); assay: KINOMEscan binding assay; settings: read-out: % Ctrl @ 10000 nM
# Chain of PAK3 (O75914 whole entry): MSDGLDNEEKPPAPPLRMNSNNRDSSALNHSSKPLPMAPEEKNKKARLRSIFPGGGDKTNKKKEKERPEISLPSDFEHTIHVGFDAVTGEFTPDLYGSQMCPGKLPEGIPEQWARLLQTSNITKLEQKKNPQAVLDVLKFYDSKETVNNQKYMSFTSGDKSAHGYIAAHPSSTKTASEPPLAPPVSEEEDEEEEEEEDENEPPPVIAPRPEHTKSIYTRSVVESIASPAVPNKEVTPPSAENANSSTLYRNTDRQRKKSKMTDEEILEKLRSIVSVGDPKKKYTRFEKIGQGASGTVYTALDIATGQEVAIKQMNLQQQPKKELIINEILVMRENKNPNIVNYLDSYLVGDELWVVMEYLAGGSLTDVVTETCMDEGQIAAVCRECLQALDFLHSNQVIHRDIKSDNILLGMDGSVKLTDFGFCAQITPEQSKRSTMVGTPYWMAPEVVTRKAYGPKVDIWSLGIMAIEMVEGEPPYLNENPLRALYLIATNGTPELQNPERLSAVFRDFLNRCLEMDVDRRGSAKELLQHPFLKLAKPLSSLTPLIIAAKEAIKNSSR
# PAK7 = PAK7 (Homo sapiens, UniProt Q9P286); assay: KINOMEscan binding assay; settings: read-out: % Ctrl @ 10000 nM
# Chain of PAK7 (Q9P286 whole entry): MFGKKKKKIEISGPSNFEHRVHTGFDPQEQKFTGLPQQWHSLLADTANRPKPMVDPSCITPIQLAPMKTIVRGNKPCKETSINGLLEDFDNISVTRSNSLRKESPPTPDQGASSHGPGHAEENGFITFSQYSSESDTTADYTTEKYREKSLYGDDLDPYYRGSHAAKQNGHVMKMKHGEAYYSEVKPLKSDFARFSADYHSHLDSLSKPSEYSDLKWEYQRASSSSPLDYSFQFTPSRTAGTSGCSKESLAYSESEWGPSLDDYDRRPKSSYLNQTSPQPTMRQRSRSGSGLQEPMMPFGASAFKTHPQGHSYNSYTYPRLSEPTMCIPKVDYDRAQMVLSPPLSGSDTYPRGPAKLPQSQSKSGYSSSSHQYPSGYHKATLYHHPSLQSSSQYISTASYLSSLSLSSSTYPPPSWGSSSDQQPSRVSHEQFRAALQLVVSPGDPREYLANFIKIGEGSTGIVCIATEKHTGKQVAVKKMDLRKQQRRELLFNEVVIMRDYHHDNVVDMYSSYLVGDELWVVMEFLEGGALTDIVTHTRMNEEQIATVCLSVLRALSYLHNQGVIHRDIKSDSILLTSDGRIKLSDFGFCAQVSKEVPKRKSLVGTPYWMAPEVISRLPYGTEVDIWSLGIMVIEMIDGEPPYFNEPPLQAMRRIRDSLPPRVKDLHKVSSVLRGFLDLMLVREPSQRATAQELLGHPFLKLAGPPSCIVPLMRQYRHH
# PIK3CA = PIK3CA (Homo sapiens, UniProt P42336); assay: KINOMEscan binding assay; settings: read-out: % Ctrl @ 10000 nM
# PIK3CA (I800L) = PIK3CA (I800L) (Homo sapiens, UniProt P42336, I800L); assay: KINOMEscan binding assay; settings: read-out: % Ctrl @ 10000 nM
# PIK3CA (M1043I) = PIK3CA (M1043I) (Homo sapiens, UniProt P42336, M1043I); assay: KINOMEscan binding assay; settings: read-out: % Ctrl @ 10000 nM
# PKN1 = PKN1 (Homo sapiens, UniProt Q16512); assay: KINOMEscan binding assay; settings: read-out: % Ctrl @ 10000 nM
# PRKCI = PRKCI (Homo sapiens, UniProt P41743); assay: KINOMEscan binding assay; settings: read-out: % Ctrl @ 10000 nM
# PRKG2 = PRKG2 (Homo sapiens, UniProt Q13237); assay: KINOMEscan binding assay; settings: read-out: % Ctrl @ 10000 nM
# ROCK2 = ROCK2 (Homo sapiens, UniProt O75116); assay: KINOMEscan binding assay; settings: read-out: % Ctrl @ 10000 nM
# [3] = biological target: RPS6KA5 Kin.Dom.2-C-terminal (Homo sapiens, UniProt O75582); assay: KINOMEscan binding assay; settings: read-out: % Ctrl @ 10000 nM
# Chain of RPS6KA5 Kin.Dom.2-C-terminal (O75582 426-687 limits assumed): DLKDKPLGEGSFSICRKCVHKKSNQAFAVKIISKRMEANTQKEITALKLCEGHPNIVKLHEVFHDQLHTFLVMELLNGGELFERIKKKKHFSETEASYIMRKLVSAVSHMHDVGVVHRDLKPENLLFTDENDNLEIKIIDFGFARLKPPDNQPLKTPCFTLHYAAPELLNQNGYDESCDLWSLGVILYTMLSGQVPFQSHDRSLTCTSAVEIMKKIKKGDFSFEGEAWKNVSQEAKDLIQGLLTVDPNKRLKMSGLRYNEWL
# [4] = iv, 3 mg/kg, IV 3 mg/kg, male CD-1 mice, read-out: AUC0-24 h
# [5] = iv, 3 mg/kg, IV 3 mg/kg, male CD-1 mice, read-out: AUC0-t
# [6] = po, 3 mg/kg, PO 3 mg/kg, male CD-1 mice, read-out: AUC0-24 h
# [7] = po, 3 mg/kg, PO 3 mg/kg, male CD-1 mice, read-out: AUC0-t
# [8] = po, 30 mg/kg, PO 30 mg/kg, male CD-1 mice, read-out: AUC0-24 h
# [9] = po, 30 mg/kg, PO 30 mg/kg, male CD-1 mice, read-out: AUC0-t
structure (smiles),measurement,setting,value
"Nc1ncc(-c2nc3ccccc3o2)c(-c2ccncc2)n1 [Comparative Compound 324, 5-(1,3-benzoxazol-2-yl)-4-(pyridine-4-yl)pyrimidin-2-amine]",AUCex,[1]; IV 3 mg/kg,1.9%
same,AUC(0-t),[1]; [4],315 ng·h/mL
same,AUC(0-t),[1]; [5],304 ng·h/mL
same,AUC(0-t),[1]; [6],11.1 ng·h/mL
same,AUC(0-t),[1]; [7],8.66 ng·h/mL
same,AUC(0-t),[1]; [8],1590 ng·h/mL
same,AUC(0-t),[1]; [9],1210 ng·h/mL
same,bioavailability,"[1]; PO 3 mg/kg, male CD-1 mice",3%
same,bioavailability,"[1]; PO 30 mg/kg, male CD-1 mice",40%
same,Cmax,"[1]; IV 3 mg/kg, male CD-1 mice",1150 ng/mL
same,Tmax,"[1]; IV 3 mg/kg, male CD-1 mice",4.98 min
same,half-life,"[1]; IV 3 mg/kg, male CD-1 mice",5.46 min
same,AUC(0-inf),"[1]; IV 3 mg/kg, male CD-1 mice",309 ng·h/mL
same,clearance,"[1]; IV 3 mg/kg, male CD-1 mice",162 mL/min/kg
same,Vd,"[1]; IV 3 mg/kg, male CD-1 mice",1.27 L/kg
same,Cmax,"[1]; PO 3 mg/kg, male CD-1 mice",14 ng/mL
same,Tmax,"[1]; PO 3 mg/kg, male CD-1 mice",15 min
same,Cmax,"[1]; PO 30 mg/kg, male CD-1 mice",666 ng/mL
same,Tmax,"[1]; PO 30 mg/kg, male CD-1 mice",30 min
same,remaining binding at 10 µM,[2],90%
same,remaining binding at 10 µM,ABL1 phosphorylated,98%
same,remaining binding at 10 µM,CAMK1G,89%
same,remaining binding at 10 µM,CSNK1G1,93%
same,remaining binding at 10 µM,CSNK1G3,83%
same,remaining binding at 10 µM,DAPK2,100%
same,remaining binding at 10 µM,FLT3,100%
same,remaining binding at 10 µM,HIPK3,91%
same,remaining binding at 10 µM,HIPK4,100%
same,remaining binding at 10 µM,"KIT (V559D, T670I)",98%
same,remaining binding at 10 µM,MAK,86%
same,remaining binding at 10 µM,MAP4K3,100%
same,remaining binding at 10 µM,MEK4,70%
same,remaining binding at 10 µM,MYLK,86%
same,remaining binding at 10 µM,NEK6,91%
same,remaining binding at 10 µM,NIM1,96%
same,remaining binding at 10 µM,p38-alpha,33%
same,remaining binding at 10 µM,PAK3,95%
same,remaining binding at 10 µM,PAK7,96%
same,remaining binding at 10 µM,PIK3CA,100%
same,remaining binding at 10 µM,PIK3CA (I800L),52%
same,remaining binding at 10 µM,PIK3CA (M1043I),100%
same,remaining binding at 10 µM,PKN1,100%
same,remaining binding at 10 µM,PRKCI,65%
same,remaining binding at 10 µM,PRKG2,82%
same,remaining binding at 10 µM,ROCK2,83%
same,remaining binding at 10 µM,[3],96%
"CNc1c(C(N)=O)c2ccccn2c1C(=O)c1ccc(F)cc1 [Compound A, 2-methyl-amino-3-[(4-fluorophenyl)carbonyl]indolizine-1-carboxamide]",AUCex,[1]; IV 3 mg/kg,0.1%
same,AUCex,[1]; PO 3 mg/kg,6.3%
same,AUCex,[1]; PO 30 mg/kg,18.5%
same,clearance after administration,"[1]; male CD-1 mice, 24 hours after administration",completely cleared after 24 hours
same,AUC(0-t),[1]; [4],502 ng·h/mL
same,AUC(0-t),[1]; [5],498 ng·h/mL
same,AUC(0-t),[1]; [6],35.4 ng·h/mL
same,AUC(0-t),[1]; [7],32.4 ng·h/mL
same,AUC(0-t),[1]; [8],659 ng·h/mL
same,AUC(0-t),[1]; [9],470 ng·h/mL
same,bioavailability,"[1]; PO 3 mg/kg, male CD-1 mice",7%
same,bioavailability,"[1]; PO 30 mg/kg, male CD-1 mice",9%
same,Cmax,"[1]; IV 3 mg/kg, male CD-1 mice",1680 ng/mL
same,Tmax,"[1]; IV 3 mg/kg, male CD-1 mice",4.98 min
same,half-life,"[1]; IV 3 mg/kg, male CD-1 mice",13.8 min
same,AUC(0-inf),"[1]; IV 3 mg/kg, male CD-1 mice",499 ng·h/mL
same,clearance,"[1]; IV 3 mg/kg, male CD-1 mice",100 mL/min/kg
same,Vd,"[1]; IV 3 mg/kg, male CD-1 mice",2 L/kg
same,Cmax,"[1]; PO 3 mg/kg, male CD-1 mice",47 ng/mL
same,Tmax,"[1]; PO 3 mg/kg, male CD-1 mice",15 min
same,half-life,"[1]; PO 3 mg/kg, male CD-1 mice",29.4 min
same,AUC(0-inf),"[1]; PO 3 mg/kg, male CD-1 mice",34.6 ng·h/mL
same,CL/F,"[1]; PO 3 mg/kg, male CD-1 mice",1450 mL/min/kg
same,Vd/F,"[1]; PO 3 mg/kg, male CD-1 mice",61.4 L/kg
same,Cmax,"[1]; PO 30 mg/kg, male CD-1 mice",237 ng/mL
same,Tmax,"[1]; PO 30 mg/kg, male CD-1 mice",30 min
same,half-life,"[1]; PO 30 mg/kg, male CD-1 mice",210 min
same,AUC(0-inf),"[1]; PO 30 mg/kg, male CD-1 mice",576 ng·h/mL
same,CL/F,"[1]; PO 30 mg/kg, male CD-1 mice",868 mL/min/kg
same,Vd/F,"[1]; PO 30 mg/kg, male CD-1 mice",264 L/kg
same,remaining binding at 10 µM,[2],85%
same,remaining binding at 10 µM,ABL1 phosphorylated,51%
same,remaining binding at 10 µM,CAMK1G,65%
same,remaining binding at 10 µM,CSNK1G1,88%
same,remaining binding at 10 µM,CSNK1G3,85%
same,remaining binding at 10 µM,DAPK2,85%
same,remaining binding at 10 µM,FLT3,96%
same,remaining binding at 10 µM,HIPK3,79%
same,remaining binding at 10 µM,HIPK4,83%
same,remaining binding at 10 µM,"KIT (V559D, T670I)",99%
same,remaining binding at 10 µM,MAK,59%
same,remaining binding at 10 µM,MAP4K3,100%
same,remaining binding at 10 µM,MEK4,43%
same,remaining binding at 10 µM,MYLK,71%
same,remaining binding at 10 µM,NEK6,76%
same,remaining binding at 10 µM,NIM1,87%
same,remaining binding at 10 µM,p38-alpha,6%
same,remaining binding at 10 µM,PAK3,75%
same,remaining binding at 10 µM,PAK7,96%
same,remaining binding at 10 µM,PIK3CA,89%
same,remaining binding at 10 µM,PIK3CA (I800L),72%
same,remaining binding at 10 µM,PIK3CA (M1043I),100%
same,remaining binding at 10 µM,PKN1,88%
same,remaining binding at 10 µM,PRKCI,69%
same,remaining binding at 10 µM,PRKG2,76%
same,remaining binding at 10 µM,ROCK2,71%
same,remaining binding at 10 µM,[3],88%

# From patent US10815230B2, “Casein kinase 1 delta inhibitor” (ELECTROPHORETICS LIMITED, priority 2015, dated 2020)
